Experimental data as given in publication PMC4613797 (Journal of medicinal chemistry, 2015).

Tests used:
[1] = mice, up to a dose of 60 µg/kg ref 18, 19; cited from earlier work
[2] = target: T1, Mouse CYP27B1 (Mus musculus, UniProt O35084); test: Kinetics of 1α-hydroxylation; assay type: in vitro ADME; settings: for Km: 1α-hydroxylation by mouse CYP27B1, phospholipid vesicles, 2 min, ±SE of the curve fit
T1 sequence (O35084 1-507): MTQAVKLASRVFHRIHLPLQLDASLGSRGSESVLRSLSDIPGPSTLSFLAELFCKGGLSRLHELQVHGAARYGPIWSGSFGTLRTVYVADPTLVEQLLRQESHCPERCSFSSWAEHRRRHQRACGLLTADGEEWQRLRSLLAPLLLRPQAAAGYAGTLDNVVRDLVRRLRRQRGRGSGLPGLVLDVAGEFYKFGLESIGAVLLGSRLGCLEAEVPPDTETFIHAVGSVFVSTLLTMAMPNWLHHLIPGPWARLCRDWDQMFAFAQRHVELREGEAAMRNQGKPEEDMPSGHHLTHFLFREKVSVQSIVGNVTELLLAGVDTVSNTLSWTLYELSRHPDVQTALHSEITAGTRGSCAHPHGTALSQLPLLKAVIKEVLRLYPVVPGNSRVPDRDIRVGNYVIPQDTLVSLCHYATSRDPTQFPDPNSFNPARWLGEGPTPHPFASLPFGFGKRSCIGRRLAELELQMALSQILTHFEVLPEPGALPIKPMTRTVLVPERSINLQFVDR

[3] = system: vitamin D receptor (VDR); test: Lentiviral VDRE luciferase reporter assay in HaCaT cells; assay type: cell-based, human
[4] = system: vitamin D receptor (VDR); test: Lentiviral VDRE luciferase reporter assay in Caco-2 cells; assay type: cell-based
[5] = system: SKMEL 188 melanoma cells; settings: SKMEL 188 melanoma cells ref 6; cited from earlier work
[6] = system: IFNγ production by mouse splenocytes; test: IFNγ inhibition assay in mouse splenocytes; assay type: cell-based; settings: 100 nM, versus control
[7] = Homo sapiens, 24 h, read-out: VDRE activation (EC50, nM) HaCaT, HaCaT, VDRE-luciferase, 24 h
[8] = read-out: VDRE activation (EC50, nM) HaCaT, VDRE-luciferase, 24 h
[9] = Homo sapiens, Caco-2, 24 h, read-out: VDRE activation (EC50, nM) Caco-2, Caco-2, VDRE-luciferase, 24 h
[10] = read-out: VDRE activation (EC50, nM) Caco-2, Caco-2, VDRE-luciferase, 24 h

| kcat, fold higher than that for the 24S isomer ([2]; mouse CYP27B1, versus 20S,24S(OH)2D3) [fold] | catalytic efficiency (kcat/Km), fold higher than 20S,24S(OH)2D3 ([2]; mouse CYP27B1, versus 20S,24S(OH)2D3, listed as 20S,24R(OH)2D3) [fold] | EC50 [4, 9] [nM] | EC50 [4, 10] [nM] | SMILES | calcemic activity [1] | Km [2] | EC50 [3, 7] [nM] | EC50 [3, 8] [nM] | inhibiting colony formation, potency compared with 1,25(OH)2D3 [5] | effect on production of IFNγ by splenocytes (in words) [6] |
| --- | --- | --- | --- | --- | --- | --- | --- | --- | --- | --- |
|  |  |  |  | C=C1CC[C@H](O)C/C1=C/C=C1\CCC[C@@]2(C)[C@H]1CC[C@@H]2[C@@](C)(O)CCCC(C)C [20S(OH)D3, 20S-hydroxyvitamin D3] | noncalcemic |  |  |  |  |  |
| 18 | 5 | > 1000 | > 1000 | C=C1CC[C@H](O)C/C1=C/C=C1\CCC[C@@]2(C)[C@H]1CC[C@@H]2[C@@](C)(O)CC[C@@H](O)C(C)C [Compound 17a, 20S,24R-dihydroxyvitamin D3] |  | 7.99 ± 4.01 (mmol of substrate)/(mol of phospholipid) | > 1000 | > 1000 | more potent than 1,25(OH)2D3 |  |
|  |  | > 1000 | > 1000 | C=C1CC[C@H](O)C/C1=C/C=C1\CCC[C@@]2(C)[C@H]1CC[C@@H]2[C@@](C)(O)CC[C@H](O)C(C)C [Compound 17b, 20S,24S-dihydroxyvitamin D3] |  | 2.49 ± 0.59 (mmol of substrate)/(mol of phospholipid) | > 1000 | > 1000 |  | slightly increased production |
